The text below walks through data of PubChem BioAssay (NCI).

Among the test systems are SNB-78 CNS; P388/ADR leukemia; P388 leukemia; SN12K1 renal; RXF-631 renal; 786-0 renal.
What all share (assay): NCI tumour cell line growth inhibition, 48 h

Structures are written as SMILES.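 These data come from cells grown in 96-well plates and exposed to compound for 48 hours at five concentrations. TGI: total growth inhibition.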

Turning to `c1ccc([P+](Cc2csnn2)(c2ccccc2)c2ccccc2)cc1`, the TGI in the assay with SNB-78 CNS was above 100 µM.

In the case of `CCOC(=O)C(C)NC(=O)N(C)C12CC3CC(CC(C3)C1)C2` (centres undefined), the TGI is above 409 µM in the assay on P388/ADR leukemia, 231 µM in the assay with P388 leukemia, above 500 µM with SNB-78 CNS and above 500 µM with SN12K1 renal.

As to `CCC1(CC)C(=O)NC(=S)N=C1N`, the TGI with RXF-631 renal and in the assay on 786-0 renal was above 100 µM throughout.

On to `O=C(NN1C(=O)CSC1c1ccc(Cl)c(Cl)c1)c1ccncc1` (centres undefined), for which the TGI in the assay with RXF-631 renal and in the assay on SNB-78 CNS was above 100 µM in each case.

The compound `O=c1c2cc3c(=O)n(CCc4ccccc4CO)c(=O)c3cc2c(=O)n1CCc1ccccc1CO` came in with a TGI in the assay on SNB-78 CNS above 100 µM.

As for `COc1cc(CCCOC2OC(COC3OCC(O)C(O)C3O)C(O)C(O)C2O)cc2cc(-c3ccc4c(c3)OCO4)oc12` (centres undefined), the TGI with P388/ADR leukemia, in the assay on P388 leukemia, in the assay with SNB-78 CNS and in the assay with SN12K1 renal was above 175 µM throughout.
